Measurements from PubChem BioAssay AID256 (DTP/NCI, 2004).
Inconclusive results and toxic doses are left out. How the source made its calls: active means survival T/C of 150% or more; inactive means T/C below 125% in these data.

Tested on: CD2F1 mice, L1210 leukemia ip, survival T/C
Assay: NCI In Vivo Anticancer Drug Screen. Data for tumor model L1210 Leukemia (intraperitoneal) in CD2F1 (CDF1) mice
Conditions: higher = longer survival
Method in brief: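 In this screen, transplantable tumors were grown in mice given either the compound or its vehicle. Results were expressed as the treated measurement relative to the control measurement.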

[1] = endpoint: mean survival time, dose: 100.0 mg/kg/injection, schedule: Q01DX009 (ip), vehicle: saline
[2] = endpoint: mean survival time, dose: 200.0 mg/kg/injection, schedule: Q01DX009 (ip), vehicle: saline
[3] = endpoint: mean survival time, dose: 400.0 mg/kg/injection, schedule: Q01DX009 (ip), vehicle: saline
[4] = endpoint: mean survival time, dose: 50.0 mg/kg/injection, schedule: Q01DX009 (ip), vehicle: saline with Tween-80
[5] = endpoint: mean survival time, dose: 100.0 mg/kg/injection, schedule: Q01DX009 (ip), vehicle: saline with Tween-80
[6] = endpoint: mean survival time, dose: 25.0 mg/kg/injection, schedule: Q01DX009 (ip), vehicle: saline
[7] = endpoint: mean survival time, dose: 50.0 mg/kg/injection, schedule: Q01DX009 (ip), vehicle: saline
[8] = endpoint: mean survival time, dose: 100.0 mg/kg/injection, schedule: Q01DX001 (ip), vehicle: saline with Tween-80
[9] = endpoint: mean survival time, dose: 200.0 mg/kg/injection, schedule: Q01DX001 (ip), vehicle: saline with Tween-80
[10] = endpoint: mean survival time, dose: 400.0 mg/kg/injection, schedule: Q01DX001 (ip), vehicle: saline with Tween-80
[11] = endpoint: mean survival time, dose: 100.0 mg/kg/injection, schedule: Q04DX002 (ip), vehicle: saline with Tween-80
[12] = endpoint: mean survival time, dose: 200.0 mg/kg/injection, schedule: Q04DX002 (ip), vehicle: saline with Tween-80

Measured: T/C

OCC1OC(n2cnc3c2NC=NCC3O)C(Cl)C1O (stereo not drawn)
inactive: endpoint: median survival time, dose: 5.0 mg/kg/injection, schedule: Q01DX005 (ip), vehicle: other 101 % of control | endpoint: median survival time, dose: 10.0 mg/kg/injection, schedule: Q01DX005 (ip), vehicle: other 103 % of control | endpoint: median survival time, dose: 20.0 mg/kg/injection, schedule: Q01DX005 (ip), vehicle: other 96 % of control | endpoint: median survival time, dose: 30.0 mg/kg/injection, schedule: Q01DX005 (ip), vehicle: other 118 % of control | endpoint: median survival time, dose: 40.0 mg/kg/injection, schedule: Q01DX005 (ip), vehicle: other 106 % of control | endpoint: median survival time, dose: 60.0 mg/kg/injection, schedule: Q01DX005 (ip), vehicle: other 107 % of control | endpoint: median survival time, dose: 120.0 mg/kg/injection, schedule: Q01DX005 (ip), vehicle: other 100 % of control

C[S+](C)CC(=O)O
inactive: [1] 97 % of control | [2] 101 % of control | [3] 92 % of control

CN(C)[C@@H]1C(=O)C(C(=O)NCNc2nc3n[nH]nc3c(=O)[nH]2)=C(O)[C@@]2(O)C(=O)C3=C(O)c4c(O)cccc4[C@@](C)(O)[C@H]3C[C@@H]12
inactive: [4] 117 % of control | [5] 123 % of control | endpoint: mean survival time, dose: 400.0 mg/kg/injection, schedule: Q01DX009 (ip), vehicle: saline with Tween-80 94 % of control

COc1ccc(C(CC(=O)c2ccccc2)[Se]c2ccccc2)cc1 (stereo not drawn)
inactive: endpoint: median survival time, dose: 25.0 mg/kg/injection, schedule: Q01DX009 (ip), vehicle: Klucel (hydroxypropylcellulose) (HPC) 101 % of control | endpoint: median survival time, dose: 50.0 mg/kg/injection, schedule: Q01DX009 (ip), vehicle: Klucel (hydroxypropylcellulose) (HPC) 100 % of control | endpoint: median survival time, dose: 100.0 mg/kg/injection, schedule: Q01DX009 (ip), vehicle: Klucel (hydroxypropylcellulose) (HPC) 101 % of control | endpoint: median survival time, dose: 200.0 mg/kg/injection, schedule: Q01DX009 (ip), vehicle: Klucel (hydroxypropylcellulose) (HPC) 94 % of control

CCC1CCCC[N-]1.CCC1CCCC[N-]1.[Cl][Pt+2][Cl] (stereo not drawn)
inactive: endpoint: mean survival time, dose: 18.8 mg/kg/injection, schedule: Q04DX003 (ip), vehicle: saline with Tween-80 106 % of control | endpoint: mean survival time, dose: 37.5 mg/kg/injection, schedule: Q04DX003 (ip), vehicle: saline with Tween-80 100 % of control | endpoint: mean survival time, dose: 75.0 mg/kg/injection, schedule: Q04DX003 (ip), vehicle: saline with Tween-80 91 % of control | endpoint: mean survival time, dose: 150.0 mg/kg/injection, schedule: Q04DX003 (ip), vehicle: saline with Tween-80 91 % of control | endpoint: mean survival time, dose: 300.0 mg/kg/injection, schedule: Q04DX003 (ip), vehicle: saline with Tween-80 88 % of control

CCCCCCCCCCCCNC(=O)C[n+]1cccc(C(=O)NC)c1
inactive: endpoint: mean survival time, dose: 12.5 mg/kg/injection, schedule: Q01DX009 (ip), vehicle: saline 98 % of control | endpoint: mean survival time, dose: 18.8 mg/kg/injection, schedule: Q04DX003 (ip), vehicle: saline 98 % of control | [6] 101 % of control | endpoint: mean survival time, dose: 37.5 mg/kg/injection, schedule: Q04DX003 (ip), vehicle: saline 95 % of control | [7] 98 % of control | endpoint: mean survival time, dose: 75.0 mg/kg/injection, schedule: Q04DX003 (ip), vehicle: saline 101 % of control

Cc1cn(C2CC(O)C(CO)O2)c(=O)nc1N1CCSCC1 (stereo not drawn)
inactive: endpoint: median survival time, dose: 12.5 mg/kg/injection, schedule: Q01DX005 (ip), vehicle: distilled water + Tween-80 101 % of control | endpoint: median survival time, dose: 25.0 mg/kg/injection, schedule: Q01DX005 (ip), vehicle: distilled water + Tween-80 103 % of control | endpoint: median survival time, dose: 50.0 mg/kg/injection, schedule: Q01DX005 (ip), vehicle: distilled water + Tween-80 102 % of control | endpoint: median survival time, dose: 100.0 mg/kg/injection, schedule: Q01DX005 (ip), vehicle: distilled water + Tween-80 101 % of control | endpoint: median survival time, dose: 200.0 mg/kg/injection, schedule: Q01DX005 (ip), vehicle: distilled water + Tween-80 102 % of control

CC(Cl)CN(CC(C)Cl)c1ccc(S(=O)(=O)Nc2ncccn2)cc1 (stereo not drawn)
inactive: endpoint: mean survival time, dose: 35.0 mg/kg/injection, schedule: Q01DX009 (ip), vehicle: other 114 % of control

O=CCC1CCCCC1
inactive: [4] 105 % of control | [5] 94 % of control | endpoint: mean survival time, dose: 200.0 mg/kg/injection, schedule: Q01DX009 (ip), vehicle: saline with Tween-80 102 % of control

O=CNc1ccc2c(c1)C(O)c1ccccc1-2 (stereo not drawn)
inactive: endpoint: mean survival time, dose: 62.5 mg/kg/injection, schedule: Q04DX003 (ip), vehicle: saline with Tween-80 103 % of control | endpoint: mean survival time, dose: 125.0 mg/kg/injection, schedule: Q04DX003 (ip), vehicle: saline with Tween-80 98 % of control | endpoint: mean survival time, dose: 250.0 mg/kg/injection, schedule: Q04DX003 (ip), vehicle: saline with Tween-80 97 % of control

C#CCOC(=O)Nc1cccc(OC(=O)NC)c1
inactive: endpoint: mean survival time, dose: 100.0 mg/kg/injection, schedule: Q04DX003 (ip), vehicle: saline with Tween-80 99 % of control | endpoint: mean survival time, dose: 200.0 mg/kg/injection, schedule: Q04DX003 (ip), vehicle: saline with Tween-80 101 % of control | endpoint: mean survival time, dose: 400.0 mg/kg/injection, schedule: Q04DX003 (ip), vehicle: saline with Tween-80 97 % of control

Cc1csc2ncnc(N)c12
inactive: [8] 100 % of control | [9] 92 % of control | [10] 101 % of control

N#CC(C#N)=CN1CCCC1
inactive: endpoint: mean survival time, dose: 5.0 mg/kg/injection, schedule: Q01DX001 (ip), vehicle: saline with Tween-80 100 % of control | endpoint: mean survival time, dose: 10.0 mg/kg/injection, schedule: Q01DX001 (ip), vehicle: saline with Tween-80 102 % of control | endpoint: mean survival time, dose: 20.0 mg/kg/injection, schedule: Q01DX001 (ip), vehicle: saline with Tween-80 93 % of control

CSc1ncnc2cn(C3OC(CO)C(O)C3O)nc12 (stereo not drawn)
inactive: endpoint: mean survival time, dose: 6.25 mg/kg/injection, schedule: Q01DX005 (ip), vehicle: water 96 % of control | endpoint: mean survival time, dose: 12.5 mg/kg/injection, schedule: Q01DX005 (ip), vehicle: water 100 % of control | endpoint: mean survival time, dose: 25.0 mg/kg/injection, schedule: Q01DX005 (ip), vehicle: water 114 % of control | endpoint: mean survival time, dose: 50.0 mg/kg/injection, schedule: Q01DX005 (ip), vehicle: water 92 % of control | endpoint: mean survival time, dose: 100.0 mg/kg/injection, schedule: Q01DX005 (ip), vehicle: water 100 % of control | endpoint: mean survival time, dose: 200.0 mg/kg/injection, schedule: Q01DX005 (ip), vehicle: water 86 % of control

O=C(c1ccccc1)C1CC1C(=O)c1ccccc1 (stereo not drawn)
inactive: [11] 100 % of control | [12] 112 % of control | endpoint: mean survival time, dose: 400.0 mg/kg/injection, schedule: Q04DX002 (ip), vehicle: saline with Tween-80 100 % of control

Nc1nc(N)c(-c2ccc(Cl)c(Cl)c2)c(/C=C/C=C/c2cccnc2)n1
inactive: [4] 110 % of control | [5] 95 % of control

C=CCc1ccc(OC(=O)Nc2ccc(S(=O)(=O)N(CCC)CCC)cc2)c(OC)c1
inactive: endpoint: mean survival time, dose: 100.0 mg/kg/injection, schedule: Q01DX001 (ip), vehicle: saline 94 % of control | endpoint: mean survival time, dose: 200.0 mg/kg/injection, schedule: Q01DX001 (ip), vehicle: saline 94 % of control | endpoint: mean survival time, dose: 400.0 mg/kg/injection, schedule: Q01DX001 (ip), vehicle: saline 94 % of control

CC(C)C(NC(=O)c1cccnc1)C(=O)O (stereo not drawn)
inactive: endpoint: mean survival time, dose: 50.0 mg/kg/injection, schedule: Q04DX002 (ip), vehicle: saline with Tween-80 100 % of control | [8] 108 % of control | [11] 100 % of control | [9] 108 % of control | [12] 104 % of control | [10] 97 % of control

OCCN1CCNC1=S
inactive: [1] 97 % of control | endpoint: mean survival time, dose: 100.0 mg/kg/injection, schedule: Q04DX003 (ip), vehicle: saline 97 % of control | [2] 97 % of control | endpoint: mean survival time, dose: 200.0 mg/kg/injection, schedule: Q04DX003 (ip), vehicle: saline 92 % of control | [3] 102 % of control | endpoint: mean survival time, dose: 400.0 mg/kg/injection, schedule: Q04DX003 (ip), vehicle: saline 98 % of control

OC1C(COCc2ccccc2)OC(n2cccc2)C1O (stereo not drawn)
inactive: endpoint: median survival time, dose: 8.75 mg/kg/injection, schedule: Q01DX005 (ip), vehicle: distilled water + Tween-80 98 % of control | endpoint: median survival time, dose: 17.5 mg/kg/injection, schedule: Q01DX005 (ip), vehicle: distilled water + Tween-80 101 % of control | endpoint: median survival time, dose: 35.0 mg/kg/injection, schedule: Q01DX005 (ip), vehicle: distilled water + Tween-80 104 % of control | endpoint: median survival time, dose: 70.0 mg/kg/injection, schedule: Q01DX005 (ip), vehicle: distilled water + Tween-80 112 % of control | endpoint: median survival time, dose: 140.0 mg/kg/injection, schedule: Q01DX005 (ip), vehicle: distilled water + Tween-80 98 % of control

C#CCOC1CCCCO1 (stereo not drawn)
inactive: [6] 102 % of control | [7] 108 % of control | [1] 106 % of control
